According to ChEMBL document CHEMBL3885861, “Open TG-GATES”:

Organism: Rattus norvegicus
Assay: Open TG-GATES - Regimen: Daily Repeat
Assay type: toxicity, organism-based, Sprague-Dawley
Design: regimen Daily Repeat, gender Male, age 6 weeks
Conditions: in vivo, po, 100 mg/kg, route gavage, dose level Middle; for APTT / Bas / Eos / Fbg / Hb / Ht / Lym / MCH / MCHC / MCV / Mono / Neu / PT / Plat / RBC / Ret / WBC: tissue Blood; for KIDNEY_L / KIDNEY_R / KIDNEY_TOTAL: tissue Kidney; for LIVER: tissue Liver; for A/G / ALP / ALT / AST / BUN / CRE / Ca / Cl / DBIL / GLC / IP / K / LDH / Na / PL / RALB / TBIL / TC / TG / TP / gamma-GTP: tissue Plasma

Compound: CC[C@H]1[C@@H]2C[C@H]3[C@@H]4N(C)c5ccccc5[C@]45C[C@@H]([C@@H]2[C@H]5O)N3[C@@H]1O [AJMALINE]
- TERMINAL_BW (72 h, time 3 day): 207.1 g
- APTT (72 h, time 3 day): 16.3 s
- Bas (72 h, time 3 day): 0%
- Eos (72 h, time 3 day): 1%
- Fbg (72 h, time 3 day): 202.6 mg/dL
- Hb (72 h, time 3 day): 12.8 g/dL
- Ht (72 h, time 3 day): 39.2%
- Lym (72 h, time 3 day): 79%
- MCH (72 h, time 3 day): 21.3 pg
- MCHC (72 h, time 3 day): 32.8%
- MCV (72 h, time 3 day): 65.1 fL
- Mono (72 h, time 3 day): 6%
- Neu (72 h, time 3 day): 13.6%
- PT (72 h, time 3 day): 11.8 s
- Plat (72 h, time 3 day): 114.8 x10_4/uL
- RBC (72 h, time 3 day): 601.8 x10_4/ul
- Ret (72 h, time 3 day): 7.8%
- WBC (72 h, time 3 day): 101.3 x10_2/uL
- KIDNEY_L (72 h, time 3 day): 1 g
- KIDNEY_R (72 h, time 3 day): 0.9 g
- KIDNEY_TOTAL (72 h, time 3 day): 1.9 g
- LIVER (72 h, time 3 day): 9.7 g
- A/G (72 h, time 3 day): 1.9
- ALP (72 h, time 3 day): 888.2 IU/L
- ALT (72 h, time 3 day): 39.2 IU/L
- AST (72 h, time 3 day): 63 IU/L
- BUN (72 h, time 3 day): 16.2 mg/dL
- CRE (72 h, time 3 day): 0.5 mg/dL
- Ca (72 h, time 3 day): 10.6 mg/dL
- Cl (72 h, time 3 day): 102.2 meq/L
- DBIL (72 h, time 3 day): 0.04 mg/dL
- GLC (72 h, time 3 day): 201 mg/dL
- IP (72 h, time 3 day): 7.9 mg/dL
- K (72 h, time 3 day): 4.3 meq/L
- LDH (72 h, time 3 day): 98.6 IU/L
- Na (72 h, time 3 day): 139.2 meq/L
- PL (72 h, time 3 day): 138 mg/dL
- RALB (72 h, time 3 day): 3.5 g/dL
- TBIL (72 h, time 3 day): 0.3 mg/dL
- TC (72 h, time 3 day): 71.8 mg/dL
- TG (72 h, time 3 day): 81 mg/dL
- TP (72 h, time 3 day): 5.3 g/dL
- gamma-GTP (72 h, time 3 day): 1 IU/L
- TERMINAL_BW ([…], time 7 day): 245.4 g
- TERMINAL_BW ([…], time 14 day): 299.4 g
- TERMINAL_BW ([…], time 28 day): 363.5 g
- APTT ([…], time 7 day): 16.6 s
- Bas ([…], time 7 day): 0%
- Eos ([…], time 7 day): 0.8%
- Fbg ([…], time 7 day): 231.4 mg/dL
- Hb ([…], time 7 day): 13.3 g/dL
- Ht ([…], time 7 day): 40.4%
- Lym ([…], time 7 day): 78.8%
- MCH ([…], time 7 day): 21.1 pg
- MCHC ([…], time 7 day): 32.8%
- MCV ([…], time 7 day): 64.4 fL
- Mono ([…], time 7 day): 7.6%
- Neu ([…], time 7 day): 13%
- PT ([…], time 7 day): 11.3 s
- Plat ([…], time 7 day): 128.6 x10_4/uL
- RBC ([…], time 7 day): 628 x10_4/ul
- Ret ([…], time 7 day): 6.9%
- WBC ([…], time 7 day): 119.7 x10_2/uL
- APTT ([…], time 14 day): 16.9 s
- Bas ([…], time 14 day): 0%
- Eos ([…], time 14 day): 0.8%
- Fbg ([…], time 14 day): 231.4 mg/dL
- Hb ([…], time 14 day): 14.1 g/dL
- Ht ([…], time 14 day): 42.6%
- Lym ([…], time 14 day): 80.6%
- MCH ([…], time 14 day): 20.4 pg
- MCHC ([…], time 14 day): 33.1%
- MCV ([…], time 14 day): 61.7 fL
- Mono ([…], time 14 day): 5.6%
- Neu ([…], time 14 day): 13.4%
- PT ([…], time 14 day): 11.2 s
- Plat ([…], time 14 day): 140 x10_4/uL
- RBC ([…], time 14 day): 690 x10_4/ul
- Ret ([…], time 14 day): 4.7%
- WBC ([…], time 14 day): 140 x10_2/uL
- APTT ([…], time 28 day): 16.5 s
- Bas ([…], time 28 day): 0%
- Eos ([…], time 28 day): 1%
- Fbg ([…], time 28 day): 218.6 mg/dL
- Hb ([…], time 28 day): 15.3 g/dL
- Ht ([…], time 28 day): 45.6%
- Lym ([…], time 28 day): 83%
- MCH ([…], time 28 day): 19.2 pg
- MCHC ([…], time 28 day): 33.4%
- MCV ([…], time 28 day): 57.5 fL
- Mono ([…], time 28 day): 4.8%
- Neu ([…], time 28 day): 11.2%
- PT ([…], time 28 day): 11.5 s
- Plat ([…], time 28 day): 123.8 x10_4/uL
- RBC ([…], time 28 day): 795 x10_4/ul
- Ret ([…], time 28 day): 2.1%
- WBC ([…], time 28 day): 123.3 x10_2/uL
- KIDNEY_L ([…], time 7 day): 1 g
- KIDNEY_R ([…], time 7 day): 1.1 g
- KIDNEY_TOTAL ([…], time 7 day): 2.1 g
- KIDNEY_L ([…], time 14 day): 1.2 g
- KIDNEY_R ([…], time 14 day): 1.2 g
- KIDNEY_TOTAL ([…], time 14 day): 2.3 g
- KIDNEY_L ([…], time 28 day): 1.3 g
- KIDNEY_R ([…], time 28 day): 1.3 g
- KIDNEY_TOTAL ([…], time 28 day): 2.6 g
- LIVER ([…], time 7 day): 12.2 g
- LIVER ([…], time 14 day): 13.4 g
- LIVER ([…], time 28 day): 14.6 g
- A/G ([…], time 7 day): 2
- ALP ([…], time 7 day): 770 IU/L
- ALT ([…], time 7 day): 32.8 IU/L
- AST ([…], time 7 day): 61.4 IU/L
- BUN ([…], time 7 day): 18 mg/dL
- CRE ([…], time 7 day): 0.5 mg/dL
- Ca ([…], time 7 day): 11.6 mg/dL
- Cl ([…], time 7 day): 103.8 meq/L
- DBIL ([…], time 7 day): 0.012 mg/dL
- GLC ([…], time 7 day): 219.2 mg/dL
- IP ([…], time 7 day): 8.7 mg/dL
- K ([…], time 7 day): 4.7 meq/L
- LDH ([…], time 7 day): 106.8 IU/L
- Na ([…], time 7 day): 142.8 meq/L
- PL ([…], time 7 day): 154.4 mg/dL
- RALB ([…], time 7 day): 3.8 g/dL
- TBIL ([…], time 7 day): 0.3 mg/dL
- TC ([…], time 7 day): 80 mg/dL
- TG ([…], time 7 day): 94.6 mg/dL
- TP ([…], time 7 day): 5.7 g/dL
- gamma-GTP ([…], time 7 day): 1.4 IU/L
- A/G ([…], time 14 day): 1.9
- ALP ([…], time 14 day): 802.8 IU/L
- ALT ([…], time 14 day): 31.8 IU/L
- AST ([…], time 14 day): 65.6 IU/L
- BUN ([…], time 14 day): 19.4 mg/dL
- CRE ([…], time 14 day): 0.6 mg/dL
- Ca ([…], time 14 day): 11 mg/dL
- Cl ([…], time 14 day): 104 meq/L
- DBIL ([…], time 14 day): 0.012 mg/dL
- GLC ([…], time 14 day): 207 mg/dL
- IP ([…], time 14 day): 7.6 mg/dL
- K ([…], time 14 day): 4.7 meq/L
- LDH ([…], time 14 day): 116.4 IU/L
- Na ([…], time 14 day): 140.6 meq/L
- PL ([…], time 14 day): 153.2 mg/dL
- RALB ([…], time 14 day): 3.7 g/dL
- TBIL ([…], time 14 day): 0.4 mg/dL
- TC ([…], time 14 day): 77 mg/dL
- TG ([…], time 14 day): 109.6 mg/dL
- TP ([…], time 14 day): 5.7 g/dL
- gamma-GTP ([…], time 14 day): 1.2 IU/L
- A/G ([…], time 28 day): 1.8
- ALP ([…], time 28 day): 699.2 IU/L
- ALT ([…], time 28 day): 33.4 IU/L
- AST ([…], time 28 day): 59.8 IU/L
- BUN ([…], time 28 day): 17.8 mg/dL
- CRE ([…], time 28 day): 0.6 mg/dL
- Ca ([…], time 28 day): 10.2 mg/dL
- Cl ([…], time 28 day): 104.4 meq/L
- DBIL ([…], time 28 day): 0.036 mg/dL
- GLC ([…], time 28 day): 189.8 mg/dL
- IP ([…], time 28 day): 6.6 mg/dL
- K ([…], time 28 day): 4.5 meq/L
- LDH ([…], time 28 day): 87.6 IU/L
- Na ([…], time 28 day): 141.2 meq/L
- PL ([…], time 28 day): 131.6 mg/dL
- RALB ([…], time 28 day): 3.9 g/dL
- TBIL ([…], time 28 day): 0.3 mg/dL
- TC ([…], time 28 day): 60.6 mg/dL
- TG ([…], time 28 day): 108.4 mg/dL
- TP ([…], time 28 day): 6 g/dL
- gamma-GTP ([…], time 28 day): 1.6 IU/L
